These results are taken from BindingDB's records for PubMed 7965790 (University of Nebraska, 1994).

Test [1] concerns the target T1, Alpha-2A adrenergic receptor [16-465] (Rattus norvegicus, UniProt P22909).
T1 construct: 16-465
T1 sequence (P22909 whole entry): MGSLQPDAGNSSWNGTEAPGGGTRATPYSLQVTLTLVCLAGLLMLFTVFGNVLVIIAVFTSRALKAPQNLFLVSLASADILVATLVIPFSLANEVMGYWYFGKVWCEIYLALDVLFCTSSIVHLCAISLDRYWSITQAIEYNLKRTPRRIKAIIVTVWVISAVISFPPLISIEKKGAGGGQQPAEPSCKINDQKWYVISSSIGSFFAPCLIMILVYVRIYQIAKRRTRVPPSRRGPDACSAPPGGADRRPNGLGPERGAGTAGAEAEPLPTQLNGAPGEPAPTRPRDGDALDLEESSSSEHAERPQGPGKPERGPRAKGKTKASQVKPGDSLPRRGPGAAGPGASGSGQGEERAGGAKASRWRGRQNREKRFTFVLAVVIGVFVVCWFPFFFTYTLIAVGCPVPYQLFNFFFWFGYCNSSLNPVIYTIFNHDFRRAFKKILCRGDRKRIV

In test [2] the target is T2, Alpha-2A adrenergic receptor (Bos taurus, UniProt Q28838).
T2 sequence (Q28838 whole entry): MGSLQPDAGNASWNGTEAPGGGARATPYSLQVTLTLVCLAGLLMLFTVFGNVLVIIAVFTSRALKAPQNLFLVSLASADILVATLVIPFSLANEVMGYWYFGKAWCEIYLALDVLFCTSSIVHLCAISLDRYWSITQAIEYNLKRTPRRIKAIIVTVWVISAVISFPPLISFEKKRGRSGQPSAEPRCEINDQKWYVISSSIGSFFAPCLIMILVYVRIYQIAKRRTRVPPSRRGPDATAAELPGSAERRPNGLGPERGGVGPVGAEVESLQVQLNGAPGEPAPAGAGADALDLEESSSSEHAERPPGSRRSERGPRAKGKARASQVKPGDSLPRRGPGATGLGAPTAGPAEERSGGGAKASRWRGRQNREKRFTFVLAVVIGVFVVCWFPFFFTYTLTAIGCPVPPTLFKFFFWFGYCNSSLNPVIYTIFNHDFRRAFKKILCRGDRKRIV

Test [3] concerns the target T3, Alpha-2A adrenergic receptor (Sus scrofa, UniProt P18871).
T3 sequence (P18871 whole entry): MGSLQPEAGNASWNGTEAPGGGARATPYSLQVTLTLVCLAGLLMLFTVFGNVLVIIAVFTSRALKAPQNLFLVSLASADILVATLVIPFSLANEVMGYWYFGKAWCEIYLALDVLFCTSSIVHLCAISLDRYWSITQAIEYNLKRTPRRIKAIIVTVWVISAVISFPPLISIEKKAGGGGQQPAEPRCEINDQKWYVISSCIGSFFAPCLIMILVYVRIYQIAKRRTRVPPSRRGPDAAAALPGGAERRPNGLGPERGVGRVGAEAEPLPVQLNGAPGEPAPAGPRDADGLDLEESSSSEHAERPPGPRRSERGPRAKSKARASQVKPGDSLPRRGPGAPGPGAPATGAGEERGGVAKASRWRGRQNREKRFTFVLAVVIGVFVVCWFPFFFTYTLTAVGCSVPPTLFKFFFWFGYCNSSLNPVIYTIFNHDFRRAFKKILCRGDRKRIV

As a reminder, the Ki is the dissociation constant of the complex between target and ligand, obtained from inhibition or displacement. Lower therefore signals tighter binding. Take `O=C1NCN(c2ccccc2)C12CCN(CC1COc3ccccc3O1)CC2` (centres undefined) [8-(2,3-Dihydro-benzo[1,4]dioxin-2-ylmethyl)-1-phenyl-1,3,8-triaza-spiro[4.5]decan-4-one]: the inhibitory constant (Ki) in test [1] turned out to be 70 nM; in test [2], 10.5 nM; in test [3], 3.36 nM.
For `COC(=O)C1=CO[C@@H](C)[C@@H]2CN3CCc4c([nH]c5ccccc45)[C@H]3C[C@H]12` [AKUAMMIGINE], the values for the Ki in test [1] and in test [2] were 1210 nM and 1830 nM, respectively.
As to `COC(=O)C1=COC(C)C2CN3CCc4c([nH]c5ccccc45)C3CC12` (centres undefined) [Ajmalicine], the results for the Ki in test [1], in test [2] and in test [3] were 289 nM, 653 nM and 10 nM, respectively.
Turning to `CN1C[C@H](Cn2ccnc2-c2ccccc2)C[C@@H]2c3cccc4[nH]c(Br)c(c34)C[C@H]21` [BAM-1303], the results for the inhibitory constant (Ki) in test [1], in test [2] and in test [3] were 35 nM, 149 nM and 0.52 nM, respectively.
As to `COc1ccccc1N1CCN(CCC2C(=O)c3ccccc3C(C)(C)C2=O)CC1` (centres undefined) [NSC_122211], the Ki in test [1] was determined as 749 nM; in test [2] it was 352 nM; in test [3] it was 365 nM.
For `COc1cccc(OC)c1OCCNCC1Oc2ccccc2OC1c1ccccc1` (centres undefined) [NSC_185453], the Ki in test [1] turned out to be 46 nM; in test [2], 13.2 nM; in test [3], 0.95 nM.
On to `NCC(O)c1ccc(O)c(O)c1` (stereo not drawn) [Noradrenaline,(+)], for which the Ki is 1090 nM in test [2] and 371 nM in test [3].
With `CC(C)=CCOc1ccc(Cl)c2c1CCN(C)CC2` [SK&F-104078], the inhibition constant (Ki) came out at 248 nM in test [1], 153 nM in test [2] and 35 nM in test [3].
In turn, `Cc1ccc(N(CC2=NCCN2)c2cccc(O)c2)cc1` [SMR000059054] came in with a Ki in test [3] of 2.87 nM.
For `Cc1cc(C(C)(C)C)c(O)c(C)c1CC1=NCCN1` [SMR000059324], the inhibitory constant (Ki) turned out to be 35 nM in test [2] and 3.19 nM in test [3].
The corresponding values for `CN(C)CCCN1c2ccccc2Sc2ccc(Cl)cc21` [[3-(2-Chloro-phenothiazin-10-yl)-propyl]-dimethyl-amine(Chlorpromazine)] are 884 nM and 64 nM.
Consider `COc1cc2nc(N3CCN(C(=O)c4ccco4)CC3)nc(N)c2cc1OC` [[3H]-Minipress], for which the Ki stood at 1370 nM in test [2] and 1160 nM in test [3].
